Data as given in PubChem BioAssay (NCI).
Values joined by “and” are separate entries in the source; they are usually repeats but may differ in a detail not shown here. Identical values can stand only once.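 Each compound was tested at five concentrations against cells in 96-well plates for 48 hours. GI50 = concentration required for 50% inhibition of growth. TGI denotes the concentration required for complete inhibition of growth.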

Columns and labels:
Test in all cases: NCI tumour cell line growth inhibition, 48 h
NCI-H460 lung = system: NCI-H460 lung
MOLT-4 leukemia = system: MOLT-4 leukemia
OVCAR-4 ovarian = system: OVCAR-4 ovarian
NCI/ADR-RES ovarian = system: NCI/ADR-RES ovarian
MDA-MB-435 = system: MDA-MB-435
NCI-H226 lung = system: NCI-H226 lung
786-0 renal = system: 786-0 renal
HOP-92 NSCLC = system: HOP-92 NSCLC
HCT-15 colon = system: HCT-15 colon
A549 NSCLC = system: A549 NSCLC

Compound | GI50 (NCI-H460 lung) [µM] | TGI (NCI-H460 lung) | GI50 (MOLT-4 leukemia) [µM] | TGI (MOLT-4 leukemia) | GI50 (OVCAR-4 ovarian) [µM] | TGI (OVCAR-4 ovarian) | GI50 (NCI/ADR-RES ovarian) [µM] | TGI (NCI/ADR-RES ovarian) [µM] | GI50 (MDA-MB-435) [µM] | TGI (MDA-MB-435) [µM] | GI50 (NCI-H226 lung) [µM] | TGI (NCI-H226 lung) [µM] | GI50 (786-0 renal) [µM] | TGI (786-0 renal) | GI50 (HOP-92 NSCLC) [µM] | TGI (HOP-92 NSCLC) | GI50 (HCT-15 colon) [µM] | TGI (HCT-15 colon) | GI50 (A549 NSCLC) [µM] | TGI (A549 NSCLC)
CCOC(=O)CSc1cc(Cl)c(C)cc1S(=O)(=O)/N=C(/N=C/c1ccc([N+](=O)[O-])s1)NNC | 35.1 | > 100 µM | 16.7 | 44.3 µM | 20.7 | 62.4 µM | 12.7 | 30.7 | 16.3 | 37.6 | 33.1 | 75.8 | 20.2 | 42.5 µM | 13.2 | 54.6 µM | 18.8 | 47.8 µM | 32.7 | > 100 µM
CC(C)/C=C1\CCC(CN(C)C)C1=O (configuration not stated) | – | 40.1 µM | – | 3.48 µM | – | 30.8 µM | – | 10.6 | – | 3.01 | – | 83 | – | 1.25 µM | – | 3.47 µM | – | 4.68 µM | – | 17.2 µM
CSc1ccc(C2=C(c3ccccc3)C(=O)OC2)cc1 | 1.29 | > 34.8 µM | 0.174 | > 100 µM | 21.2 | > 100 µM | 0.35 | > 34.9 | 0.0923 | 0.364 | 4.3 | 53.3 | 1.21 | 19.7 µM | 2.13 | 44.7 µM | 0.202 | 3.46 µM | 0.677 | > 100 µM
CC(C)=CCc1cc2c(cc1O)C1=C(C(=O)C3=C(C1=O)S(=O)(=O)CCN3)C(C=C(C)C)O2 (configuration not stated) | 0.454 | 2.3 µM | 0.718 | 3.99 µM | 0.469 | 2.44 µM | 6.66 | 16.7 | 0.061 | 0.227 | 1.6 | 5.22 | 2.49 | 7.03 µM | 3.31 | 7.61 µM | 1.77 | 4.3 µM | 2.23 | 5.59 µM
c1ccc(-c2oc(-c3ccccc3)c(CN3CCCCC3)c2CN2CCCCC2)cc1 | 3.25 | 14.2 µM | 2.03 | 5.58 µM | 2.65 | 13.6 µM | 4.17 | 15.9 | 2.73 | 10.6 | 5.19 | 22.7 | 2.8 | 12.7 µM | 1.48 | 5.89 µM | 1.79 | 10.3 µM | 5.55 | 24.8 µM
C=C1C(=O)O[C@H]2[C@H]1CC/C(COC(=O)c1cc(OC)c(OC)c(OC)c1)=C\CC[C@@]1(C)O[C@@H]21 | 2.35 | 6.52 µM | 1.64 | 5.55 µM | 2.09 | 6.11 µM | 2.87 | 13.8 | 1.64 | 4.13 | 1.4 | 3.63 | 1.27 | 2.72 µM | 0.523 | 2.1 µM | 0.418 | 1.82 µM | 3.05 | 12.1 µM
O=C1CC2OCC=C3CN4CCC56c7ccccc7N1C5C2C3CC46O (configuration not stated) | – | > 100 µM | – | > 100 µM | – | > 100 µM | – | > 100 | – | > 100 | – | > 100 | – | > 100 µM | – | > 100 µM | – | > 100 µM | – | > 100 µM
O=C1NC(=S)S/C1=C\c1cn(-c2ccccc2)nc1-c1ccccc1 | 5.5 | 19.2 µM | 14.8 | > 100 µM | 8.14 | > 100 µM | 4.8 | > 100 | 4.91 | 36.6 | 20.3 | 76.5 | 3.92 | 28.5 µM | 0.623 | 5.34 µM | 4.71 | 23.2 µM | 5.88 | > 100 µM
C#Cc1cccc(Nc2ncnc3cc(NC(=O)CCl)ccc23)c1 | 2.89 | 6.63 µM | 0.739 | 3.45 µM | 2.16 | 6.95 µM | 4.65 | 17.2 | 1.27 | 5.17 | 4.72 | 11.6 | 1.07 | 5.53 µM | 3.56 | 8.09 µM | 0.743 | 3.42 µM | 3.59 | 7.93 µM
COc1cc(/C=C2\C(=O)N(Cc3ccc(Cl)cc3)c3ccccc32)cc(OC)c1OC | 2.82 | 8.38 µM | 2.2 | 5.97 µM | 4.35 | > 49.6 µM | 2.85 | 9.96 | 2.32 | 7.03 | 5.2 | 19.9 | 3.37 | 14.9 µM | 1.64 | 5.74 µM | 1.68 | 3.43 µM | 4.27 | 19.2 µM
O=C(Nc1ccc(Oc2ccc3nc(NC(=O)c4ccco4)[nH]c3c2)cc1)Nc1cc(C(F)(F)F)ccc1F | 1.35 | 6.85 µM | 2.21 | 15.7 µM | 1.25 | > 13.8 µM | 1.71 | 11.4 | 0.973 | 7.71 | 0.28 | 4.02 | 3.55 | 10.4 µM | 0.234 | 5.74 µM | 1.33 | > 17.2 µM | 3.19 | 11.8 µM
CC(=O)Nc1ccc(C(=O)CCl)cc1 | 10.8 | 26 µM | 2.92 | 7.06 µM | 2.07 | 4.06 µM | 14.7 | 43.5 | 4.74 | 16.6 | 16.9 | 42.6 | 4.41 | 15.2 µM | 2.12 | 4.95 µM | 2.39 | 7.6 µM | 18.9 | 39.2 µM
COC(=O)NC1C(C)OC(OC2C/C=C(/C)C3C=CC4C(OC5CC(OC6CCC(OC7CC(O)C(OC8CCC(O)C(C)O8)C(C)O7)C(C)O6)C(OC(C)=O)C(C)O5)C(C)CC(C)C4C3(C)/C(O)=C3/C(=O)OC4(CC(C=O)=CC(O)C4/C=C\2C)C3=O)CC1(C)[N+](=O)[O-] (configuration not stated) | 0.319 | 2.17 µM and 2.14 µM | 0.131 | 4.78 µM and 0.634 µM | 1.56 | 7.26 µM and 4.66 µM | – | 26.3 | – | 1.06 | – | 2.72 | 0.21 | 2.2 µM and 0.518 µM | 0.908 | 2.69 µM and 3.32 µM | 1.22 | 3.4 µM and 4.26 µM | 0.48 | 8.73 µM and 2.5 µM
O=C1Nc2ccc(Cl)cc2/C1=C\c1c(-c2ccc(Cl)cc2)nc2sc(C3CC3)nn12 | 3.89 | 14.1 µM | 44.9 | > 100 µM | 1.96 | 5.16 µM | 2.85 | 10.2 | 9.36 | 28.9 | 1.7 | 4.68 | 4.68 | 18.8 µM | 2.01 | 5.89 µM | 4.36 | 17.6 µM | 3.58 | 13.9 µM
Cc1cc(=O)oc2ccc(OC/C=C3\CCC(=O)O3)cc12 | 17.3 | 43 µM | 3.05 | > 100 µM | 1.21 | 3.13 µM | 13.7 | 32.4 | 7.65 | 22.8 | 17.2 | 57.2 | 2.7 | 14.2 µM | 5 | 24.4 µM | 3.5 | 11.5 µM | 17 | 33 µM
O=C(Nc1ccc(Oc2ccc(F)cc2)cc1)[C@@H]1C[C@@H](Cc2ccc(F)cc2)CN1C(=O)Cn1ccnn1 | 5.37 | 21.4 µM | 4.2 | 31.6 µM | 6.29 | > 69.9 µM | 12.1 | 52.5 | 7.16 | 23.7 | 7.79 | 29 | 10.5 | 34.2 µM | 7.54 | 31.3 µM | 5.04 | 23.1 µM | 5.21 | > 50.4 µM
COc1cc2oc(-c3cccc(C(=O)Nc4ccc(Cl)cc4)c3)cc(=O)c2c(OC)c1OC | 2.76 | > 100 µM | 2.22 | > 100 µM | 3.05 | > 100 µM | 1.81 | > 100 | 3.15 | > 100 | 2.24 | 94.8 | 2.53 | > 100 µM | 1.46 | 5.58 µM | 1.61 | > 100 µM | 3.56 | > 100 µM
O=C1/C(=C/c2ccc(Cl)c(Cl)c2)CN(C(=O)C(Cl)Cl)C/C1=C\c1ccc(Cl)c(Cl)c1 | 0.261 | 0.935 µM | 0.0985 | > 100 µM | 0.0743 | 1.49 µM | 0.107 | > 100 | 0.222 | 0.546 | 0.192 | 0.366 | 0.151 | 0.306 µM | 0.19 | 0.541 µM | 0.033 | 0.802 µM | 0.22 | 0.908 µM
CCN1CCN(c2nc(C)cc(N(CCCNc3ccnc4cc(Cl)ccc34)Cc3ccc4c(c3)OCO4)n2)CC1 | 1.53 | 3.54 µM | 1.2 | 4.35 µM | 1.75 | 7.12 µM | 2.63 | 10.1 | 1.56 | 3.06 | 5.36 | 24.4 | 1.46 | 2.95 µM | 1.15 | 3.1 µM | 1.07 | 3.16 µM | 1.97 | 7.42 µM
